“And” between values parts separate entries of the source, which are not always exact repeats. Equal entries are not always repeated. Where two headings read alike, the source gives them in different places. Marks after values point to notes of the source that are not given here.
Assays:
[1] = Stability of MTG in PBS receptor medium with antioxidants (DTT, ascorbic acid); type: physicochemical; settings: 32 °C
Method: The drug content was analysed using HPLC (Sect. HPLC analysis) at 24, 48, 72 and 96 h.
(§1) Samples were analysed using Shimadzu liquid chromatographic system (Kyoto, Japan) with SPD-20A UV–vis detector set at 254 nm. A reverse phase ZORBAX Eclipse Plus C18 column (Agilent Technologies, 150 × 4.6 mm ID × 3.5 μm) coupled with a C18 guard column (Phenomenex SecurityGuard™, 4 × 3.0 mm ID × 5 μm) was employed as the stationary phase. A gradient elution method with acetonitrile and 0.1%v/v of formic acid as the mobile phase (30:70 to 70:30 (v/v) over 1 min and held until 4 min; then returned to 30:70 (v/v) from 4 to 6 min and held up until 10 min) at a flow rate of 1.2 mL/min was used. The injection volume was set at 100 μL and the total run time was 10 min with a retention time of ~ 4 min. The limits of detection and quantification were 0.47 and 1.43 μg/mL for a lower concentration drug range (0.5–10 μg/mL) and 4.29 and 13.01 μg/mL for a higher concentration drug range (10–175 μg/mL), respectively. The linearity for both calibration curves was excellent (R^2 > 0.999).

[2] = In vitro skin permeation of 5%w/v MTG in single solvents (Franz diffusion cells), with infinite dose model fitting; type: in vitro ADME, porcine; settings: for Papp at 48 h, 5 %w/v: pig, read-out: Kp (permeability coefficient) (converted)
Method: The in vitro permeation study was performed in triplicate using Franz diffusion cell apparatus with a diffusion area of ~ 0.8 cm^2 and a receptor volume of ~ 3 mL. The porcine skin was thawed at room temperature and cut into an appropriate size before mounting on the Franz diffusion cells. The receptor compartment was filled with PBS containing 0.02%w/v of sodium azide and a selected antioxidant. The Franz diffusion cells were placed into a water bath to maintain the skin temperature at 32 ± 0.5 °C. […] After 48-h permeation studies, the mass balance studies were performed.
as §1, with “min.” for “min. The limits of detection and quantification were 0.47 and 1.43 μg/mL for a lower concentration drug range (0.5–10 μg/mL) and 4.29 and 13.01 μg/mL for a higher concentration drug range (10–175 μg/mL), respectively. The linearity for both calibration curves was excellent (R^2 > 0.999).”
To estimate the permeation parameters (P1 and P2), the in vitro permeation data were fitted to the infinite dose model (Eq. 1) using non-linear least squares. This infinite dose model was obtained by solving the diffusion equation using Laplace transform, which was subsequently numerically inverted using Weeks method and fitted to in Python 3.13.3 (Python Software Foundation, Wilmington, DE, US).1 Q¯s=J·A/s=P1ACd/ss/P2sinhs/P2
Here, Q¯s is the cumulative amount of drug permeated, J is the permeation flux, A is the permeation area, Cd is the initial concentration, h is the membrane thickness and s is the Laplace variable. The apparent partition and apparent diffusion coefficients, P1 and P2, are related to the h and the diffusion (D) and partition (K) coefficients, as defined in Eq. 2 and Eq. 3 [32]. The goodness of fit was measured based on the coefficient of determination (R^2) and root mean square error (RMSE).2 P1=Kh 3 P2=D/h^2
The permeability coefficient (Kp), steady-state flux (Jss) and lag time (tlag) can then be calculated using Eqs. 4, 5, and 6 [33] with the estimated values of P1 and P2 from the curve fitting.4 Kp=P1P2 5 Jss=KpCd 6 tlag=h^2/6D
Other permeation parameters were determined experimentally, where A was 0.7–0.8 cm^2, h was 0.0586 cm, Cd was 50 mg/mL and the volume of drug loaded was 40 µL.

[3] = 32 °C; cited from earlier work
[4] = beagle dogs; cited from earlier work
[5] = 5%w/v MTG in DMSO, receptor PBS with 0.01%w/v ascorbic acid (DMSO-AA), 48 h
[6] = 5%w/v MTG in DMSO, receptor PBS without ascorbic acid, 48 h
[7] = 5%w/v MTG in Labrasol, receptor PBS with 0.01%w/v ascorbic acid (Labrasol-AA), 48 h
[8] = 5%w/v MTG in Lauroglycol, receptor PBS with 0.01%w/v ascorbic acid (Lauroglycol-AA), 48 h
[9] = 5%w/v MTG in Maisine, receptor PBS with 0.01%w/v ascorbic acid (Maisine-AA), 48 h
[10] = 5%w/v MTG in Maisine, receptor PBS without ascorbic acid, 48 h
[11] = 5%w/v MTG in PG, receptor PBS with 0.01%w/v ascorbic acid (PG-AA), 48 h
[12] = 5%w/v MTG in PG, receptor PBS without ascorbic acid, 48 h
[13] = 5%w/v MTG in Transcutol, receptor PBS with 0.01%w/v ascorbic acid (Transcutol-AA), 48 h
[14] = 5%w/v MTG in Transcutol, receptor PBS without ascorbic acid, 48 h
[15] = 5%w/v in dimethyl sulphoxide and Transcutol, optimised receptor medium (0.01%w/v ascorbic acid in PBS)

CC[C@@H]1CN2CCc3c([nH]c4cccc(OC)c34)[C@@H]2C[C@@H]1/C(=C\OC)C(=O)OC [MTG, mitragynine]
Percentage recovery of MTG ([1]; 50 µg/mL in PBS with DTT (0.01-0.1%w/v), 96 h, lowest recovery): ~ 81%
Percentage recovery of MTG ([1]; 50 µg/mL in PBS with ascorbic acid (0.01-0.1%w/v, regardless of concentration), 96 h): > 99%
Percentage recovery of MTG ([1]; 50 µg/mL in PBS without antioxidant, after 96 h): ~ 96%
Jss (steady-state flux) [2, 5]: 0.77 ± 0.18 µg/cm^2/h and 0.77 ± 0.18^d µg/cm^2/h
P1 (apparent partition coefficient) [2, 5]: 20.35 ± 8.07 × 10^–4 cm
P2 (apparent diffusion coefficient) [2, 5]: 8.01 ± 1.91 × 10^–3 h^−1
Permeation (cumulative amount of MTG permeated) [2, 5]: 15.40 ± 2.40 µg/cm^2
tlag (lag time) [2, 5]: 21.53 ± 4.53 h
Cumulative amount of MTG permeated [2, 6]: 14.40 ± 3.34 μg/cm^2
Jss (steady-state flux) [2, 6]: 0.52 ± 0.15 µg/cm^2/h
P1 (apparent partition coefficient) [2, 6]: 8.90 ± 5.52 × 10^–4 cm
P2 (apparent diffusion coefficient) [2, 6]: 13.40 ± 4.73 × 10^–3 h^−1
tlag (lag time) [2, 6]: 13.52 ± 4.70 h
Jss (steady-state flux) [2, 7]: 0.14 ± 0.11 µg/cm^2/h
P1 (apparent partition coefficient) [2, 7]: 6.83 ± 5.64^a × 10^–4 cm
P2 (apparent diffusion coefficient) [2, 7]: 4.33 ± 0.52 × 10^–3 h^−1
Permeation (cumulative amount of MTG permeated) [2, 7]: 1.53 ± 1.08 µg/cm^2
tlag (lag time) [2, 7]: 38.85 ± 4.39^e,f h
Permeation (cumulative amount of MTG permeated) ([2]; 5%w/v MTG in Labrasol, receptor PBS without ascorbic acid, 48 h): 1.36 ± 1.45 µg/cm^2
Jss (steady-state flux) [2, 8]: 0.11 ± 0.07 µg/cm^2/h
P1 (apparent partition coefficient) [2, 8]: 0.65 ± 0.09^a × 10^–4 cm
P2 (apparent diffusion coefficient) [2, 8]: 33.50 ± 18.62^b × 10^–3 h^−1
Permeation (cumulative amount of MTG permeated) [2, 8]: 3.65 ± 2.40 µg/cm^2
tlag (lag time) [2, 8]: 6.39 ± 4.02^e h
Permeation (cumulative amount of MTG permeated) ([2]; 5%w/v MTG in Lauroglycol, receptor PBS without ascorbic acid, 48 h): 0.77 ± 0.25 µg/cm^2
Jss (steady-state flux) [2, 9]: 0.27 ± 0.07 µg/cm^2/h
P1 (apparent partition coefficient) [2, 9]: 2.18 ± 0.48^a × 10^–4 cm
P2 (apparent diffusion coefficient) [2, 9]: 25.90 ± 8.44 × 10^–3 h^−1
Permeation (cumulative amount of MTG permeated) [2, 9]: 8.39 ± 2.61 µg/cm^2
tlag (lag time) [2, 9]: 7.05 ± 2.82^e h
Jss (steady-state flux) [2, 10]: 0.10 ± 0.09 µg/cm^2/h
P1 (apparent partition coefficient) [2, 10]: 1.89 ± 1.95 × 10^–4 cm
P2 (apparent diffusion coefficient) [2, 10]: 12.86 ± 5.15 × 10^–3 h^−1
Permeation (cumulative amount of MTG permeated) [2, 10]: 2.26 ± 1.93 µg/cm^2
tlag (lag time) [2, 10]: 14.19 ± 4.62 h
Jss (steady-state flux) [2, 11]: 0.33 ± 0.12 µg/cm^2/h
P1 (apparent partition coefficient) [2, 11]: 9.49 ± 3.95 × 10^–4 cm
P2 (apparent diffusion coefficient) [2, 11]: 7.17 ± 0.89 × 10^–3 h^−1
Permeation (cumulative amount of MTG permeated) [2, 11]: 6.06 ± 2.12 µg/cm^2 and 6.06 ± 2.13 µg/cm^2
tlag (lag time) [2, 11]: 23.50 ± 2.93 h
Cumulative amount of MTG permeated [2, 12]: 5.24 ± 2.28 μg/cm^2
Jss (steady-state flux) [2, 12]: 0.48 ± 0.37 µg/cm^2/h
P1 (apparent partition coefficient) [2, 12]: 25.55 ± 25.22 × 10^–4 cm
P2 (apparent diffusion coefficient) [2, 12]: 7.33 ± 6.13 × 10^–3 h^−1
tlag (lag time) [2, 12]: 33.85 ± 20.70 h
Jss (steady-state flux) [2, 13]: 0.46 ± 0.22 µg/cm^2/h
P1 (apparent partition coefficient) [2, 13]: 10.40 ± 4.15 × 10^–4 cm
P2 (apparent diffusion coefficient) [2, 13]: 8.76 ± 0.55 × 10^–3 h^−1
Permeation (cumulative amount of MTG permeated) [2, 13]: 10.27 ± 4.40 µg/cm^2
tlag (lag time) [2, 13]: 19.07 ± 1.17 h
Jss (steady-state flux) [2, 14]: 0.44 ± 0.18 µg/cm^2/h
P1 (apparent partition coefficient) [2, 14]: 26.94 ± 23.48 × 10^–4 cm
P2 (apparent diffusion coefficient) [2, 14]: 4.29 ± 1.70 × 10^–3 h^−1
Permeation (cumulative amount of MTG permeated) [2, 14]: 3.89 ± 1.41 µg/cm^2
tlag (lag time) [2, 14]: 44.70 ± 22.17 h
Cumulative amount of MTG permeated ([2]; 5%w/v MTG in the rest of the solvents (other than DMSO), receptor PBS without ascorbic acid, 48 h): < 4 μg/cm^2
Drug permeation ([2]; 5%w/v in Labrasol and Lauroglycol, optimised receptor medium): 1 – 4 μg/cm^2
Mitragynine permeated ([2]; 5%w/v in Maisine and propylene glycol, optimised receptor medium): 6 – 8 µg/cm^2
Mitragynine permeation [2, 15]: 10 – 15 µg/cm^2
Skin fluxes [2, 15]: 0.5 – 0.8 µg/cm^2/h
MTG amount permeated with vs without ascorbic acid in receptor medium (times higher) ([2]; Transcutol-AA and Maisine-AA vs Transcutol and Maisine, 48 h): 3–4 times
Papp at 48 h, 5 %w/v [2, 5]: 0.00425 ×10⁻⁶ cm/s
Papp at 48 h, 5 %w/v [2, 6]: 0.00291 ×10⁻⁶ cm/s
Papp at 48 h, 5 %w/v [2, 7]: 0.000775 ×10⁻⁶ cm/s
Papp at 48 h, 5 %w/v [2, 8]: 0.000631 ×10⁻⁶ cm/s
Papp at 48 h, 5 %w/v [2, 9]: 0.00151 ×10⁻⁶ cm/s
Papp at 48 h, 5 %w/v [2, 11]: 0.00183 ×10⁻⁶ cm/s
Papp at 48 h, 5 %w/v [2, 12]: 0.00266 ×10⁻⁶ cm/s
Papp at 48 h, 5 %w/v [2, 13]: 0.00257 ×10⁻⁶ cm/s
Papp at 48 h, 5 %w/v [2, 14]: 0.00247 ×10⁻⁶ cm/s
Saturated solubility of MTG in PBS [3]: 77.10 ± 5.17 µg/mL
Oral bioavailability [4]: 69.6%
